IC50 data for ten compounds are collected here from patent publication US8207172B2 (Bayer Intellectual Property GmbH, priority 2004, dated 2012).

Experiment [1] deals with BT474 (human breast carcinoma). Description: In vitro tumor cell proliferation assay (Cell Titer-Glo luminescent cell viability), BT474. Format: cell-based. Conditions: BT-474, 72 h, BT474 cells, 72 hours of drug exposure, ATP luminescence readout, read-out: IC50, anti-proliferative activity (inhibition of cell proliferation). Put shortly: (§1)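 Seeding density 2.5×10^3 cells/well; 72 h drug exposure at 37° C; endpoint CellTiter-Glo luminescence, reported as IC50.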

In experiment [2] the test system is A431 cells (human epidermoid carcinoma). Description: In vitro tumor cell proliferation assay (Cell Titer-Glo luminescent cell viability), A431. Format: cell-based. Conditions: A-431, 72 h, 72 hours of drug exposure, ATP luminescence readout, read-out: IC50, anti-proliferative activity (inhibition of cell proliferation). Put shortly: as §1
A general note: In ATP-based viability assays light output follows the ATP content of the culture.

As to `COCCN(C)CCn1cc2c(n1)CCc1c-2sc2ncnc(Nc3ccc(OCc4cccc(F)c4)c(Cl)c3)c12` [Example 69, N-{3-chloro-4-[(3-fluorobenzyl)oxy]phenyl}-2-{2-[(2-methoxyethyl)(methyl)amino]ethyl}-4,5-dihydro-2H-pyrimido[5′,4′:4,5]thieno[2,3-e]indazol-6-amine], the IC50 is ≤ 1 µM in experiment [1] and ≤ 5 µM in experiment [2].

On to `Fc1cccc(COc2ccc(Nc3ncnc4sc5c(c34)CCc3nn(CCN4CCC(N6CCCCC6)CC4)cc3-5)cc2Cl)c1` [Example 70, 2-[2-(1,4′-bipiperidin-1′-yl)ethyl]-N-{3-chloro-4-[(3-fluorobenzyl)oxy]phenyl}-4,5-dihydro-2H-pyrimido[5′,4′:4,5]thieno[2,3-e]indazol-6-amine], for which the IC50 in experiment [1] is ≤ 1 µM; in experiment [2], ≤ 5 µM.

In the case of `CNCCn1cc2c(n1)CCc1c-2sc2ncnc(Nc3ccc(OCc4cccc(F)c4)c(Cl)c3)c12` [Example 71, N-{3-chloro-4-[(3-fluorobenzyl)oxy]phenyl}-2-[2-(methylamino)ethyl]-4,5-dihydro-2H-pyrimido[5′,4′:4,5]thieno[2,3-e]indazol-6-amine], the IC50 in experiment [1] was ≤ 1 µM; in experiment [2], ≤ 50 µM.

With `CC(C)(C)OC(=O)N1CCN(CCn2cc3c(n2)CCc2c-3sc3ncnc(Nc4ccc(OCc5cccc(F)c5)c(Cl)c4)c23)CC1` [Example 72, tert-butyl 4-{2-[6-({3-chloro-4-[(3-fluorobenzyl)oxy]phenyl}amino)-4,5-dihydro-2H-pyrimido[5′,4′:4,5]thieno[2,3-e]indazol-2-yl]ethyl}piperazine-1-carboxylate], the IC50 in experiment [1] and in experiment [2] was ≤ 50 µM throughout.

With `CN(C)CCn1cc2c(n1)CCc1c-2sc2ncnc(Nc3ccc(OCc4cccc(F)c4)c(Cl)c3)c12` [Example 73, N-{3-chloro-4-[(3-fluorobenzyl)oxy]phenyl}-2-[2-(dimethylamino)ethyl]-4,5-dihydro-2H-pyrimido[5′,4′:4,5]thieno[2,3-e]indazol-6-amine], the IC50 is ≤ 1 µM in experiment [1] and ≤ 5 µM in experiment [2].

Consider `Fc1cccc(COc2ccc(Nc3ncnc4sc5c(c34)CCc3n[nH]cc3-5)cc2Cl)c1` [Example 74, N-{3-chloro-4-[(3-fluorobenzyl)oxy]phenyl}-4,5-dihydro-2H-pyrimido[5′,4′:4,5]thieno[2,3-e]indazol-6-amine], for which the figures for the IC50 in experiment [1] and in experiment [2] were ≤ 1 µM and ≤ 5 µM, respectively.

With `OC[C@@H](O)Cn1cc2c(n1)CCc1c-2sc2ncnc(Nc3ccc(OCc4cccc(F)c4)c(Cl)c3)c12` [Example 75, (S)-3-{6-[3-Chloro-4-(3-fluoro-benzyloxy)-phenylamino]-4,5-dihydro-10-thia-2,3,7,9-tetraaza-cyclopenta[a]fluoren-2-yl}-propane-1,2-diol], the IC50 was ≤ 1 µM in experiment [1] and ≤ 5 µM in experiment [2].

Consider `OC[C@H](O)Cn1cc2c(n1)CCc1c-2sc2ncnc(Nc3ccc(OCc4cccc(F)c4)c(Cl)c3)c12` [Example 76, (R)-3-{6-[3-Chloro-4-(3-fluoro-benzyloxy)-phenylamino]-4,5-dihydro-10-thia-2,3,7,9-tetraaza-cyclopenta[a]fluoren-2-yl}-propane-1,2-diol], for which the IC50 in experiment [1] was ≤ 1 µM; in experiment [2], ≤ 5 µM.

`Fc1cccc(COc2ccc(Nc3ncnc4sc5c(c34)CCc3nn(CCn4ccnc4)cc3-5)cc2Cl)c1` [Example 77, N-{3-chloro-4-[(3-fluorobenzyl)oxy]phenyl}-2-[2-(1H-imidazol-1-yl)ethyl]-4,5-dihydro-2H-pyrimido[5′,4′:4,5]thieno[2,3-e]indazol-6-amine]: the IC50 in experiment [1] is ≤ 1 µM; in experiment [2] it was ≤ 5 µM.

On to `CS(=O)(=O)CCNCCn1cc2c(n1)CCc1c-2sc2ncnc(Nc3ccc(OCc4cccc(F)c4)c(Cl)c3)c12` [Example 78, N-{3-chloro-4-[(3-fluorobenzyl)oxy]phenyl}-2-(2-{[2-(methylsulfonyl)ethyl]amino}ethyl)-4,5-dihydro-2H-pyrimido[5′,4′:4,5]thieno[2,3-e]indazol-6-amine], for which the values for the IC50 in experiment [1] and in experiment [2] were ≤ 1 µM and ≤ 5 µM, respectively.
